Legend:
[1] = In vivo plasma levels in mice; conditions: mouse, oral, 30 mg/kg; male C57BL/6J mice, dose 30 mpk, plasma concentration of test article (parent) 30 min post dose; read-out: 30 min Exposure: Parent
Description: Male C57BL/6J mice 10-12 weeks old were acclimated to dosing (e.g., oral gavage) 2-3 times prior to the study. On the day of the study, food was removed for 5-6 hours, then the mice were dosed with test article or vehicle (e.g., by oral gavage at a volume of 10 mL/kg). Animals were euthanized with carbon dioxide typically 30 min post dose. Blood was collected via cardiac puncture for measurement of plasma concentrations of test article (parent) or metabolite resulting from ester cleavage.

human GPR40 = biological target: T1, human GPR40 (Homo sapiens, UniProt O14842); experiment: Inositol phosphate accumulation assay (IP1 HTRF) in CHO-K1 cells expressing human GPR40; assay type: cell-based; conditions: 90 min stimulation
T1 construct: host or cells: CHO-K1
Description: CHO-KI cells expressing human GPR40 were purchased from DiscoverX (95-1005C2). HEK293 cells expressing mouse FFAR1 were prepared using a mouse FFAR1 carrying plasmid purchased from OriGene Technologies (MR222997). The cells were transfected using Lipofectamine 2000 using manufacturer instructions and stable cell line was established from a single cell using geneticine selection. Assay ready frozen (ARF) cells were prepared and used throughout the study.
The assay was performed in a 384-well plate format using IP1 assay kit from Cis-Bio. ARF cells expressing FFAR1 (mouse and human) were thawed, washed and then plated in the appropriate medium (F12 based medium for CHO hFFAR1 and DMEM based medium for HEK293 mFFAR1—both were supplemented with 10% FBS and penicillin/streptomycin). 20 μL of 3.5×10^5 cells/mL were plated on a Poly D-Lysine coated 384-well white plate. The cells were then incubated for 16 hr at 37° C./5% CO2. After 16 hr the medium was removed and 15 μL of stimulation buffer containing the test compounds was added to the cells. The plates were then incubated for 90 min at 37° C./5% CO2. 5 μL of detection buffer (prepared as described in the IP-one kit) was added to each well and the plates were incubated at RT for 1 hr.
[…] was measured using ClarioSTAR plate reader, calculating the ratio between emissions at 665 nm and 620 nm (HTRF ratio). HTRF ratio for positive (Max) and negative (Min) controls were used to normalize HTRF data and generate values for % activity. EC50 and Max activity values were determined using a standard 4-parameter fit.

T1 sequence (O14842 whole entry): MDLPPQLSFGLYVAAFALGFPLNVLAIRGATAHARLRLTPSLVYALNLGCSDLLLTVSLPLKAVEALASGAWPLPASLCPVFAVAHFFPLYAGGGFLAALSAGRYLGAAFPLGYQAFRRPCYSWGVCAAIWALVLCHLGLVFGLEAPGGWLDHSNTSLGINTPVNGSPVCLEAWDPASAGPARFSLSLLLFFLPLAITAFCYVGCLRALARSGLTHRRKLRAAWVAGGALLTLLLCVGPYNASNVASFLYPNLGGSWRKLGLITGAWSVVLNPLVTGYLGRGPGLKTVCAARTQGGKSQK

Row | concentration at 30 min [1] [nM] | EC50 (human GPR40) [nM] | Structure (SMILES)
1 | < 2 | ≤ 10 | COc1cc(-c2ccc(C(=O)Oc3cccc([C@@H](CC(=O)O)C4CC4)c3)cc2CN(C(C)C)C(C)C)c(F)cn1 [Compound 15, (S)-3-cyclopropyl-3-(3-((3-((diisopropylamino)methyl)-4-(5-fluoro-2-methoxypyridin-4-yl)benzoyl)oxy)phenyl)propanoic acid]
2 | < 2 | ≤ 10 | COc1cc(-c2ccc(C(=O)Oc3cccc([C@H](C4CC4)[C@H](C)C(=O)O)c3)cc2CN(C(C)C)C(C)C)c(F)cn1 [Compound 26, (2S,3R)-3-cyclopropyl-3-(3-((3-((diisopropylamino)methyl)-4-(5-fluoro-2-methoxypyridin-4-yl)benzoyl)oxy)phenyl)-2-methylpropanoic acid]
3 | < 5 | ≤ 10 | COc1cc(-c2ccc(C(=O)Oc3cccc([C@H](C4CC4)[C@@](C)(F)C(=O)O)c3)cc2CN(C(C)C)C(C)C)c(F)cn1 [Compound 36, (2R,3S)-3-cyclopropyl-3-(3-((3-((diisopropylamino)methyl)-4-(5-fluoro-2-methoxypyridin-4-yl)benzoyl)oxy)phenyl)-2-fluoro-2-methylpropanoic acid]
4 |  | > 500 | O=C(O)C[C@H](c1cccc(C(=O)O)c1)C1CC1 [Compound 42]
5 |  | 100 to 500 | O=C(O)C[C@H](c1cccc(C(=O)Oc2ccc(-c3cc(O)ccc3F)cc2)c1)C1CC1 [Compound 43]
6 |  | 100 to 500 | COc1cc(-c2ccc(OC(=O)c3cccc([C@@H](CC(=O)O)C4CC4)c3)cc2)c(F)cn1 [Compound 44]
7 |  | 100 to 500 | COc1ccc(F)c(-c2ccc(OC(=O)c3cccc([C@@H](CC(=O)O)C4CC4)c3)c(C)c2)c1 [Compound 45, (S)-3-cyclopropyl-3-(3-(((2′-fluoro-5′-methoxy-3-methyl-[1,1′-biphenyl]-4-yl)oxy)carbonyl)phenyl)propanoic acid]
8 |  | > 500 | CC(c1cc(C(F)(F)F)ccc1C(F)(F)F)N1CCC(OC(=O)c2cccc([C@@H](CC(=O)O)C3CC3)c2)CC1 (stereo partly drawn) [Compound 46, (3S)-3-(3-(((1-(1-(2,5-bis(trifluoromethyl)phenyl)ethyl)piperidin-4-yl)oxy)carbonyl)phenyl)-3-cyclopropylpropanoic acid]
9 |  | > 500 | CC(c1cc(C(F)(F)F)ccc1C(F)(F)F)N1CC(OC(=O)c2cccc([C@@H](CC(=O)O)C3CC3)c2)C1 (stereo partly shown) [Compound 47]
10 |  | > 500 | CC(c1cc(C(F)(F)F)ccc1C(F)(F)F)N1CC[C@@H](OC(=O)c2cccc([C@@H](CC(=O)O)C3CC3)c2)C1 (stereo partly shown) [Compound 48]
11 |  | > 500 | CC(c1cc(C(F)(F)F)ccc1C(F)(F)F)N1CC[C@H](OC(=O)c2cccc([C@@H](CC(=O)O)C3CC3)c2)C1 (stereo partly shown) [Compound 49]
12 |  | > 500 | COc1cc(-c2ccc(C(=O)Oc3cccc([C@H](C4CC4)[C@H](C)C(=O)O)c3)c(C)c2)c(C(=O)NCCO)cn1 [Compound 51]
13 |  | > 500 | COc1cc(-c2ccc(C(=O)Oc3cccc([C@H](C4CC4)[C@H](C)C(=O)O)c3)c(C)c2)c(C(=O)N(CCO)CCO)cn1 [Compound 52]
14 |  | ≤ 10 | COC(=O)c1cnc(OC)cc1-c1ccc(C(=O)Oc2cccc([C@H](C3CC3)[C@H](C)C(=O)O)c2)cc1CN(C(C)C)C(C)C [Compound 53]
15 |  | ≤ 10 | COc1cc(-c2ccc(OC(=O)c3cccc([C@H](C4CC4)[C@H](C)C(=O)O)c3)cc2)c(F)cn1 [Compound 54]
16 |  | ≤ 10 | COc1cc(-c2ccc(OC(=O)c3cccc([C@H](C4CC4)[C@H](C)C(=O)O)c3)c(CN(C(C)C)C(C)C)c2)c(F)cn1 [Compound 55]

Row | concentration at 30 min [1] [nM] | EC50 (human GPR40) [nM] | Structure (SMILES)
17 |  | ≤ 10 | COc1cc(-c2ccc(OC(=O)c3cccc([C@H](C4CC4)[C@H](C)C(=O)O)c3)c(C)c2)c(F)cn1 [Compound 56]
18 |  | ≤ 10 | CCN(Cc1cc(OC(=O)c2cccc([C@H](C3CC3)[C@H](C)C(=O)O)c2)ccc1-c1cc(OC)ncc1F)C(C)C [Compound 57]
19 |  | ≤ 10 | COc1cc(-c2ccc(OC(=O)c3cccc([C@H](C4CC4)[C@H](C)C(=O)O)c3)cc2CN(C(C)C)C(C)C)c(F)cn1 [Compound 58]
20 |  | ≤ 10 | COc1cc(-c2cc(F)c(OC(=O)c3cccc([C@H](C4CC4)[C@H](C)C(=O)O)c3)cc2CN(C(C)C)C(C)C)ccn1 [Compound 59, (2S,3R)-3-cyclopropyl-3-(3-((5-((diisopropylamino)methyl)-2-fluoro-4-(2-methoxypyridin-4-yl)phenoxy)carbonyl)phenyl)-2-methylpropanoic acid]
21 |  | ≤ 10 | COc1cc(-c2cc(F)c(OC(=O)c3cccc([C@H](C4CC4)[C@H](C)C(=O)O)c3)cc2CN(C(C)C)C(C)C)c(F)cn1 [Compound 60]
22 |  | ≤ 10 | COc1cc(-c2cc(C)c(OC(=O)c3cccc([C@H](C4CC4)[C@H](C)C(=O)O)c3)cc2CN(C(C)C)C(C)C)c(F)cn1 [Compound 61]
23 |  | ≤ 10 | COc1ccc(F)c([C@H]2CC[C@H](C(=O)Oc3cccc([C@H](C4CC4)[C@@](C)(F)C(=O)O)c3)CC2)c1 [Compound 62]
24 |  | ≤ 10 | COc1cc(-c2ccc(OC(=O)c3cccc([C@H](C4CC4)[C@@](C)(F)C(=O)O)c3)cc2CN(C(C)C)C(C)C)c(F)cn1 [Compound 63, (2R, 3S)-3-cyclopropyl-3-(3-((3-((diisopropylamino)methyl)-4-(5-fluoro-2-methoxypyridin-4-yl)phenoxy)carbonyl)phenyl)-2-fluoro-2-methylpropanoic acid]
25 |  | > 500 | Cc1cc(-c2cc(O)ncc2F)c(CN(C(C)C)C(C)C)cc1C(=O)Oc1cccc([C@H](C2CC2)[C@@](C)(F)C(=O)O)c1 [Compound 64, (2R,3S)-3-cyclopropyl-3-(3-((5-((diisopropylamino)methyl)-4-(5-fluoro-2-hydroxypyridin-4-yl)-2-methylbenzoyl)oxy)phenyl)-2-fluoro-2-methylpropanoic acid]
26 |  | ≤ 10 | COc1cc(-c2ccc(C(=O)Oc3cccc([C@H](C4CC4)[C@H](C)C(=O)OCc4oc(=O)oc4C)c3)cc2CN(C(C)C)C(C)C)c(F)cn1 [Compound 65, 3-((1R, 2S)-1-cyclopropyl-2-methyl-3-((5-methyl-2-oxo-1,3-dioxol-4-yl)methoxy)-3-oxopropyl)phenyl 3-((diisopropylamino)methyl)-4-(5-fluoro-2-methoxypyridin-4-yl)benzoate]
27 |  | > 500 | COc1cc(-c2ccc(C(=O)Oc3cccc(C(CP(C)(=O)O)C4CC4)c3)cc2CN(C(C)C)C(C)C)c(F)cn1 (stereo not shown) [Compound 66, (2-cyclopropyl-2-(3-((3-((diisopropylamino)methyl)-4-(5-fluoro-2-methoxypyridin-4-yl)benzoyl)oxy)phenyl)ethyl)(methyl)phosphinic acid]
28 |  | > 500 | COc1cc(-c2ccc(C(=O)Oc3cccc(C(CS(=O)(=O)O)C4CC4)c3)cc2CN(C(C)C)C(C)C)c(F)cn1 (stereo not shown) [Compound 67, 2-cyclopropyl-2-(3-((3-((diisopropylamino)methyl)-4-(5-fluoro-2-methoxypyridin-4-yl)benzoyl)oxy)phenyl)ethanesulfonic acid]
29 |  | 100 to 500 | COc1cc(-c2ccc(C(=O)Oc3cccc([C@H](C4CC4)[C@H](C)C(=O)OCCP(=O)(O)O)c3)cc2CN(C(C)C)C(C)C)c(F)cn1 [Compound 68, (2-(((2S, 3R)-3-cyclopropyl-3-(3-((3-((diisopropylamino)methyl)-4-(5-fluoro-2-methoxypyridin-4-yl)benzoyl)oxy)phenyl)-2-methylpropanoyl)oxy)ethyl)phosphonic acid]
30 |  | ≤ 10 | COc1cc(-c2ccc(C(=O)Oc3cccc([C@H](C4CC4)[C@H](C)C(=O)O)c3F)cc2CN(C(C)C)C(C)C)c(F)cn1 [Compound 69, (2S,3R)-3-cyclopropyl-3-[3-[3-[(diisopropylamino)methyl]-4-(5-fluoro-2-methoxy-4-pyridyl)benzoyl]oxy-2-fluoro-phenyl]-2-methyl-propanoic acid]
31 |  | > 500 | COc1cc(-c2cc(C)c(C(=O)Oc3cccc(C(CP(C)(=O)O)C4CC4)c3)cc2CN(C(C)C)C(C)C)c(F)cn1 (stereo not shown) [Compound 70, (2-cyclopropyl-2-(3-((5-((diisopropylamino)methyl)-4-(5-fluoro-2-methoxypyridin-4-yl)-2-methylbenzoyl)oxy)phenyl)ethyl)(methyl)phosphinic acid]
